Measurements from US5869494A, “Uses for barbituric acid analogs” (priority 1997, dated 1999).

Columns and labels:
Experiment in all cases: NCI tumor cell line screen (SRB assay)
Format in all cases: cell-based
Design in all cases: activity: dose or concentration left out as unconfirmed
HCC-2998 = settings: Homo sapiens, read-out: PERCENT GROWTH
Procedure: (§1) The National Cancer Institute carried out the studies at the direction of the present inventor.
(§2) In the tests, the National Cancer Institute used the SRB (sulforhodamine B) assay as described by Skehan et al., (Journal of the National Cancer Institute, 82:13, Jul. 4, 1990, 1107-1112). Briefly, the assay is as follows. TCA-fixed cells were stained for 30 minutes with 0.4% (wt/vol) SRB dissolved in 1% acetic acid. At the end of the staining period, SRB was removed and cultures were quickly rinsed four times with 1% acetic acid to remove unbound dye. The acetic acid was poured directly into the culture wells from a beaker. […] Residual wash solution was removed by sharply flicking plates over a sink, which ensured the complete removal of rinsing solution. […] After being rinsed, the cultures were air dried until no standing moisture was visible. Bound dye was solubilized with 10 mM unbuffered Tris base (pH 10.5) for 5 minutes on a gyratory shaker.
(§3) Optical density (OD) was read in either a UVmax microtiter plate reader (Molecular Devices, Menlo Park, Calif.) or a Beckman DU-70 spectrophotometer. For maximum sensitivity, OD was measured at 564 nm. Because readings were linear with dye concentrations only below 1.8 OD units, however, suboptimal wavelengths were generally used, so that all samples in an experiment remained within the linear OD range. With most cell lines, wavelengths of approximately 490-530 nm worked well for this purpose.
(§4) Nine different non-small cell lung carcinoma cell lines, six different colon carcinoma cell lines, six different CNS (central nervous system) carcinoma cell lines, seven different melanoma cell lines, six different ovarian carcinoma cell lines, and eight different renal carcinoma cell lines were tested.

SF-295 = settings: Homo sapiens, read-out: PERCENT GROWTH
Procedure: as §1, §2, §3, §4

HOP-92 = settings: Homo sapiens, read-out: PERCENT GROWTH
Procedure: as §1, §2, §3, §4

HCT-116 = settings: Homo sapiens, read-out: PERCENT GROWTH
Procedure: as §1, §2, §3, §4

RXF 393 = settings: Homo sapiens, read-out: PERCENT GROWTH
Procedure: as §1, §2, §3, §4

NCI-H226 = settings: Homo sapiens, read-out: PERCENT GROWTH
Procedure: as §1, §2, §3, §4

CAKI-1 = settings: Homo sapiens, read-out: PERCENT GROWTH
Procedure: as §1, §2, §3, §4

A549/ATCC = settings: Homo sapiens, read-out: PERCENT GROWTH
Procedure: as §1, §2, §3, §4

A498 = settings: Homo sapiens, read-out: PERCENT GROWTH
Procedure: as §1, §2, §3, §4

ACHN = settings: Homo sapiens, read-out: PERCENT GROWTH
Procedure: as §1, §2, §3, §4

OVCAR-5 = settings: Homo sapiens, read-out: PERCENT GROWTH
Procedure: as §1, §2, §3, §4

UO-31 = settings: Homo sapiens, read-out: PERCENT GROWTH
Procedure: as §1, §2, §3, §4

OVCAR-3 = settings: Homo sapiens, read-out: PERCENT GROWTH
Procedure: as §1, §2, §3, §4

OVCAR-8 = settings: Homo sapiens, read-out: PERCENT GROWTH
Procedure: as §1, §2, §3, §4

SF-268 = settings: Homo sapiens, read-out: PERCENT GROWTH
Procedure: as §1, §2, §3, §4

SK-MEL-28 = settings: Homo sapiens, read-out: PERCENT GROWTH
Procedure: as §1, §2, §3, §4

U251 = settings: Homo sapiens, U-251, read-out: PERCENT GROWTH
Procedure: as §1, §2, §3, §4

M14 = settings: Homo sapiens, read-out: PERCENT GROWTH
Procedure: as §1, §2, §3, §4

## CCCCN1C(=O)CC(=O)N(CCCC)C1=S [Compound C1, 4,6(1H, 5H)-pyrimidinedione, 1,3-dibutyldihydro-2-thioxo]
HCC-2998; 10^-3.0 Molar
  activity: -82%
HCC-2998; 10^-5.0 Molar
  activity at 10 µM: 109%
HCC-2998; 10^-7.0 Molar
  activity at 0.1 µM: 113%
SF-295; 10^-3.0 Molar
  activity: -95%
SF-295; 10^-4.0 Molar
  activity at 100 µM: 47%
SF-295; 10^-5.0 Molar
  activity at 10 µM: 100%
SF-295; 10^-6.0 Molar
  activity at 1 µM: 100%
SF-295; 10^-7.0 Molar
  activity at 0.1 µM: 104%
HOP-92; 10^-3.0 Molar
  activity: -70%
HOP-92; 10^-4.0 Molar
  activity at 100 µM: 51%
HOP-92; 10^-5.0 Molar
  activity at 10 µM: 104%
HOP-92; 10^-6.0 Molar
  activity at 1 µM: 110%
HOP-92; 10^-7.0 Molar
  activity at 0.1 µM: 104%
HCT-116; 10^-3.0 Molar
  activity: -100%
HCT-116; 10^-4.0 Molar
  activity at 100 µM: 48%
HCT-116; 10^-5.0 Molar
  activity at 10 µM: 118%
HCT-116; 10^-6.0 Molar
  activity at 1 µM: 111%
HCT-116; 10^-7.0 Molar
  activity at 0.1 µM: 109%
RXF 393; 10^-3.0 Molar
  activity: -85%
RXF 393; 10^-4.0 Molar
  activity at 100 µM: 43%
RXF 393; 10^-5.0 Molar
  activity at 10 µM: 86%
RXF 393; 10^-6.0 Molar
  activity at 1 µM: 93%
RXF 393; 10^-7.0 Molar
  activity at 0.1 µM: 93%
NCI-H226; 10^-3.0 Molar
  activity: -39%
NCI-H226; 10^-4.0 Molar
  activity at 100 µM: 90%
NCI-H226; 10^-5.0 Molar
  activity at 10 µM: 106%
NCI-H226; 10^-6.0 Molar
  activity at 1 µM: 100%
NCI-H226; 10^-7.0 Molar
  activity at 0.1 µM: 96%
CAKI-1; 10^-3.0 Molar
  activity: -100%
CAKI-1; 10^-4.0 Molar
  activity at 100 µM: 92%
CAKI-1; 10^-5.0 Molar
  activity at 10 µM: 73%
CAKI-1; 10^-6.0 Molar
  activity at 1 µM: 85%
CAKI-1; 10^-7.0 Molar
  activity at 0.1 µM: 103%
A549/ATCC; 10^-3.0 Molar
  activity: -98%
A549/ATCC; 10^-4.0 Molar
  activity at 100 µM: 67%
A549/ATCC; 10^-5.0 Molar
  activity at 10 µM: 95%
A549/ATCC; 10^-6.0 Molar
  activity at 1 µM: 95%
A549/ATCC; 10^-7.0 Molar
  activity at 0.1 µM: 98%
A498; 10^-3.0 Molar
  activity: -81%
A498; 10^-4.0 Molar
  activity at 100 µM: 62%
A498; 10^-5.0 Molar
  activity at 10 µM: 96%
A498; 10^-6.0 Molar
  activity at 1 µM: 105%
A498; 10^-7.0 Molar
  activity at 0.1 µM: 99%
ACHN; 10^-3.0 Molar
  activity: -3%
ACHN; 10^-4.0 Molar
  activity at 100 µM: 89%
ACHN; 10^-5.0 Molar
  activity at 10 µM: 107%
ACHN; 10^-6.0 Molar
  activity at 1 µM: 105%
ACHN; 10^-7.0 Molar
  activity at 0.1 µM: 99%
OVCAR-5; 10^-3.0 Molar
  activity: -97%
OVCAR-5; 10^-4.0 Molar
  activity at 100 µM: 97%
OVCAR-5; 10^-5.0 Molar
  activity at 10 µM: 99%
OVCAR-5; 10^-6.0 Molar
  activity at 1 µM: 98%
OVCAR-5; 10^-7.0 Molar
  activity at 0.1 µM: 102%
UO-31; 10^-3.0 Molar
  activity: -75%
UO-31; 10^-4.0 Molar
  activity at 100 µM: 63%
UO-31; 10^-5.0 Molar
  activity at 10 µM: 92%
UO-31; 10^-6.0 Molar
  activity at 1 µM: 99%
UO-31; 10^-7.0 Molar
  activity at 0.1 µM: 92%
OVCAR-3; 10^-3.0 Molar
  activity: -93%
OVCAR-3; 10^-4.0 Molar
  activity at 100 µM: 89%
OVCAR-3; 10^-5.0 Molar
  activity at 10 µM: 110%
OVCAR-3; 10^-6.0 Molar
  activity at 1 µM: 114%
OVCAR-3; 10^-7.0 Molar
  activity at 0.1 µM: 110%
OVCAR-8; 10^-3.0 Molar
  activity: -49%
OVCAR-8; 10^-4.0 Molar
  activity at 100 µM: 81%
OVCAR-8; 10^-5.0 Molar
  activity at 10 µM: 108%
OVCAR-8; 10^-6.0 Molar
  activity at 1 µM: 106%
OVCAR-8; 10^-7.0 Molar
  activity at 0.1 µM: 102%
SF-268; 10^-3.0 Molar
  activity: -58%
SF-268; 10^-4.0 Molar
  activity at 100 µM: 52%
SF-268; 10^-5.0 Molar
  activity at 10 µM: 93%
SF-268; 10^-6.0 Molar
  activity at 1 µM: 100%
SF-268; 10^-7.0 Molar
  activity at 0.1 µM: 98%
SK-MEL-28; 10^-3.0 Molar
  activity: -75%
SK-MEL-28; 10^-4.0 Molar
  activity at 100 µM: 69%
SK-MEL-28; 10^-5.0 Molar
  activity at 10 µM: 108%
SK-MEL-28; 10^-6.0 Molar
  activity at 1 µM: 111%
SK-MEL-28; 10^-7.0 Molar
  activity at 0.1 µM: 110%
U251; 10^-3.0 Molar
  activity: -55%
U251; 10^-4.0 Molar
  activity at 100 µM: 54%
U251; 10^-5.0 Molar
  activity at 10 µM: 102%
U251; 10^-6.0 Molar
  activity at 1 µM: 111%
U251; 10^-7.0 Molar
  activity at 0.1 µM: 104%
M14; 10^-3.0 Molar
  activity: -100%
M14; 10^-4.0 Molar
  activity at 100 µM: 94%
M14; 10^-5.0 Molar
  activity at 10 µM: 105%
M14; 10^-6.0 Molar
  activity at 1 µM: 100%
M14; 10^-7.0 Molar
  activity at 0.1 µM: 106%
